Results on 16 molecules are retold here after patent publication US8415378B2, “Isoxazol-3(2H)-one analogs as therapeutic agents” (AstraZeneca AB, priority 2009, dated 2013).

T1 sequence (P00747 20-810 limits assumed): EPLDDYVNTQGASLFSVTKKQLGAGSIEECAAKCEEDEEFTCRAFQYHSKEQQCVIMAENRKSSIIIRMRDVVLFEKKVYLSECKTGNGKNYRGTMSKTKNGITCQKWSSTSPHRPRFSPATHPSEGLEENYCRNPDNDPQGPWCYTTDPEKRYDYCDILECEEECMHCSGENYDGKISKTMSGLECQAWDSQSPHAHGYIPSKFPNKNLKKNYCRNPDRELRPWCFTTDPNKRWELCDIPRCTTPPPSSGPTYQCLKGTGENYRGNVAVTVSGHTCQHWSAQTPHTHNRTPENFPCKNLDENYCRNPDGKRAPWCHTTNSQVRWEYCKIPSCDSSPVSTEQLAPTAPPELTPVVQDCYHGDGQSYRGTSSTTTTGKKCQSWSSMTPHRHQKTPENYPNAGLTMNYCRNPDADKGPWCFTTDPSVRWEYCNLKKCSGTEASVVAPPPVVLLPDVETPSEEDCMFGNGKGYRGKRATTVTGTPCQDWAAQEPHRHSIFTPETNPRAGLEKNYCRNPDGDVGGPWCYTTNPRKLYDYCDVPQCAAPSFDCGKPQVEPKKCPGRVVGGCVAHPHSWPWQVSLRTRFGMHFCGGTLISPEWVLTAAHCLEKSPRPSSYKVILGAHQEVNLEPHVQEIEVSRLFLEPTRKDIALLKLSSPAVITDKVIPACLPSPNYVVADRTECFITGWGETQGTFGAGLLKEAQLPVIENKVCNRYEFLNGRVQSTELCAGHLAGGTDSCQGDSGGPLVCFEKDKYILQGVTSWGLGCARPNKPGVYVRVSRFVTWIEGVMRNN

This assay addresses T1, human Glu-plasminogen (Homo sapiens, UniProt P00747).
T1 construct: human Glu-plasminogen; purchased Chromogenix, Italy
The assay is described as follows: Clot-lysis buffer assay. The format is biochemical. The method, then: The assay method used for evaluating biological activity of the compounds according to the invention was Clot-lysis buffer assay.
Tested substance were added to the reaction mixture in 10% DMSO. Reaction was started by the addition of thrombin.
Measured according to the Clot-lysis buffer assay described above.
As to `Cc1cc(C(F)(F)F)ccc1[C@H]1C[C@@H](c2cc(=O)[nH]o2)CCN1` [Example 72, 5-((2R,4S)-2-(2-Methyl-4-(trifluoromethyl)phenyl)piperidin-4-yl)isoxazol-3(2H)-one], the IC50 (in general, the concentration needed to halve the response being measured) stood at 0.6 µM.

As to `CC(C)(C)c1ccc([C@H]2C[C@@H](c3cc(=O)[nH]o3)CCN2)s1` [Example 42, 5-((2R,4S)-2-(5-tert-Butylthiophen-2-yl)piperidin-4-yl)isoxazol-3(2H)-one], it took 34.9 µM to reach half-maximal inhibition (IC50). To `O=c1cc([C@@H]2CCN[C@H](Cc3cc(F)ccc3F)C2)o[nH]1` [Example 125, 5-((2S,4R)-2-(2,5-Difluorobenzyl)piperidin-4-yl)isoxazol-3(2H)-one] belongs 92.9 µM; to `O=c1cc([C@@H]2CCN[C@@H](c3ccc(C(F)(F)F)cc3)C2)o[nH]1` (relative stereo) [Example 35, 5-(Trans-2-(4-(trifluoromethyl)phenyl)piperidin-4-yl)isoxazol-3(2H)-one], 14.4 µM; to `O=c1cc([C@@H]2CCN[C@@H](c3ccc(C(F)(F)F)nc3)C2)o[nH]1` (relative stereo) [Example 41, 5-(Trans-2-(6-(trifluoromethyl)pyridin-3-yl)piperidin-4-yl)isoxazol-3(2H)-one], 40.9 µM. Take `O=c1cc([C@@H]2CCN[C@@H](c3cccc(C(F)(F)F)c3)C2)o[nH]1` (relative stereo) [Example 32, 5-(Trans-2-(3-(trifluoromethyl)phenyl)piperidin-4-yl)isoxazol-3(2H)-one]: 23.6 µM corresponded to half-maximal inhibition (IC50). With `O=c1cc([C@H]2CCN[C@@H](c3ccc(Cl)cc3Cl)C2)o[nH]1` [Example 51, 5-((2R,4S)-2-(2,4-Dichlorophenyl)piperidin-4-yl)isoxazol-3(2H)-one] the figure was 0.9 µM; with `O=c1cc([C@@H]2CCN[C@@H](Cc3ccc(C(F)(F)F)cc3)C2)o[nH]1` [Example 106, 5-((2R,4R)-2-(4-(Trifluoromethyl)benzyl)piperidin-4-yl)isoxazol-3(2H)-one], 88.8 µM; with `O=c1cc([C@H]2CCN[C@H](Cc3cc(F)cc(F)c3)C2)o[nH]1` [Example 132, 5-((2S,4S)-2-(3,5-Difluorobenzyl)piperidin-4-yl)isoxazol-3(2H)-one], 2.2 µM. Consider `CS(=O)(=O)c1ccc([C@H]2C[C@@H](c3cc(=O)[nH]o3)CCN2)cc1` [Example 38, 5-((2R,4S)-2-(4-(Methylsulfonyl)phenyl)piperidin-4-yl)isoxazol-3(2H)-one], for which the IC50 worked out at 1.5 µM.

`O=c1cc([C@@H]2CCN[C@@H](c3cc(Cl)cc(Cl)c3)C2)o[nH]1` (relative stereo) [Example 57, 5-(Trans-2-(3,5-dichlorophenyl)piperidin-4-yl)isoxazol-3(2H)-one] gave a half-inhibitory concentration (IC50) of 40 µM. The molecule `O=c1cc([C@H]2CCN[C@@H](c3ccc(F)cc3F)C2)o[nH]1` [Example 44, 5-((2R,4S)-2-(2,4-Difluorophenyl)piperidin-4-yl)isoxazol-3(2H)-one] had a 50% inhibitory concentration (IC50) of 2.3 µM. With `O=c1cc([C@@H]2CCN[C@H](Cc3c(F)cccc3F)C2)o[nH]1` [Example 128, 5-((2S,4R)-2-(2,6-Difluorobenzyl)piperidin-4-yl)isoxazol-3(2H)-one] the figure was 31.4 µM; with `O=c1cc([C@H]2CCN[C@@H](Cc3ccccc3C(F)(F)F)C2)o[nH]1` [Example 110, 5-((2R,4S)-2-(2-(Trifluoromethyl)benzyl)piperidin-4-yl)isoxazol-3(2H)-one], 1.2 µM. With `O=c1cc([C@H]2CCN[C@@H](c3ccc(C(F)(F)F)c(F)c3)C2)o[nH]1` [Example 75, 5-((2R,4S)-2-(3-Fluoro-4-(trifluoromethyl)phenyl)piperidin-4-yl)isoxazol-3(2H)-one] the figure was 3.1 µM; with `CC(C)(C)c1ccc([C@H]2C[C@H](c3cc(=O)[nH]o3)CCN2)cc1` (relative stereo) [Example 37, 5-(Trans-2-(4-tert-butylphenyl)piperidin-4-yl)isoxazol-3(2H)-one], 228 µM.
